# In ChEMBL document CHEMBL3272054, “Beta-adrenoceptor studies. 2. Effects of alkyl substitution on beta-adrenoceptor blocking, antiarrhythmic, and local anesthetic activities of 1,1'-(o-phenylenedioxy)bis(3-isopropylamino-2-propanol)” (J Med Chem, 1977):
# The source made the active and inactive calls. No cut-off for these calls is given here.
# Key:
# [1] = biological target: Beta-2 adrenergic receptor (Cavia porcellus, UniProt Q8K4Z4); assay: Antagonist activity at beta-2 adrenergic receptor in guinea pig tracheal strip assessed as inhibition of isoprenaline-induced effect; conditions: read-out: pA2 (converted)
# Sequence of Beta-2 adrenergic receptor (Q8K4Z4 whole entry): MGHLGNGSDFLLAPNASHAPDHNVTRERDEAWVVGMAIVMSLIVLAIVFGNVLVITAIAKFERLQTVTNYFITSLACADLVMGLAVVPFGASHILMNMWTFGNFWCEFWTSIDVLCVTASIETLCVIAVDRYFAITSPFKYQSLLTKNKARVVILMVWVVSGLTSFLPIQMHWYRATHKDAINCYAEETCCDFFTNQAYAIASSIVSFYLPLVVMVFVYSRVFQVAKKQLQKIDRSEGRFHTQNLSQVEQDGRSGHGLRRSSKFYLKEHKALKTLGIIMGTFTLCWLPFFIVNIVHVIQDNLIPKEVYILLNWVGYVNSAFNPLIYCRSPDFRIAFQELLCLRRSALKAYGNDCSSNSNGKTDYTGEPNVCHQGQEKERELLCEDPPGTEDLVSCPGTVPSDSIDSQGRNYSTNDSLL
# [2] = biological target: Beta-1 adrenergic receptor (Cavia porcellus, UniProt H0W3H1); assay: Antagonist activity at […] adrenergic receptor in guinea pig right atrium assessed as inhibition of isoprenaline-induced effect; parameters: species or system Cardiac atrium
# Sequence of Beta-1 adrenergic receptor (H0W3H1 1-470): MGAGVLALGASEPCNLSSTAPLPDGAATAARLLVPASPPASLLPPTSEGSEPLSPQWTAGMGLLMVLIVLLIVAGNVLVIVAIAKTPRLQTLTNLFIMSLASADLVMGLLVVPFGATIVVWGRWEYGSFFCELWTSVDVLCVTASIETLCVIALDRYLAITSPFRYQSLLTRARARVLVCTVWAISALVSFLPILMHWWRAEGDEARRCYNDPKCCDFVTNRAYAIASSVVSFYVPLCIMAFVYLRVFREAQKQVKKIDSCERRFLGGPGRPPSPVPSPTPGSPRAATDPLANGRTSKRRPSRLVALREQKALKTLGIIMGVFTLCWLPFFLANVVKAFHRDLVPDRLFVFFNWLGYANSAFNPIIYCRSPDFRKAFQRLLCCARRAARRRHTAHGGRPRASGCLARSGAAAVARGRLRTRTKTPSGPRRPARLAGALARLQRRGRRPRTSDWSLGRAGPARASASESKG
# Right cardiac atrium [3] = assay: Antiarrhythmic activity in guinea pig right atrium assessed as inhibition of ouabain-induced arrhythmia; type: functional, Cavia porcellus
# Right cardiac atrium [4] = assay: Negative chronotropic activity in guinea pig right atrium assessed as atrial rate at MEC after 30 mins; type: functional, tissue-based; conditions: Cavia porcellus
# Right cardiac atrium [5] = assay: Negative inotropic activity in guinea pig right atrium assessed as contractile force at MEC after 30 mins; type: functional, tissue-based; conditions: Cavia porcellus
# [6] = Local anesthetic activity in desheathed frog sciatic nerve; type: functional, tissue-based, Anura
# [7] = 1-octanol-phosphate buffer apparent partition coefficient, log P of the compound at pH 7.4; type: physicochemical
# [8] = Apparent dissociation constant, pKa of the compound; type: physicochemical
Kb [1],pA2 [2],pEC50 [6],logD [7],pKa [8],Compound,-logMIC (Right cardiac atrium [3]),Activity (Right cardiac atrium [4]),Activity (Right cardiac atrium [5])
–,–,1.29,-1.19,9.22,CC(C)NCC(O)COc1ccccc1OCC(O)CNC(C)C (stereo not drawn),3.7,Active,Active
–,–,2,-0.747,9.24,CC(C)NCC(O)COc1cccc(C(C)C)c1OCC(O)CNC(C)C.Cl (stereo not drawn),5,Active,Active
–,–,2.07,-0.833,9.3,CC(C)NCC(O)COc1ccc(C(C)C)cc1OCC(O)CNC(C)C.Cl (stereo not drawn),4.7,Active,Active
–,–,1.8,-1.17,9.23,Cc1cccc(OCC(O)CNC(C)C)c1OCC(O)CNC(C)C.Cl (stereo not drawn),4.7,Active,Active

# The next lines start with the compound.
Compound,Kb [1],pA2 [2],pEC50 [6],logD [7],pKa [8],-logMIC (Right cardiac atrium [3]),Activity (Right cardiac atrium [4]),Activity (Right cardiac atrium [5])
CC(C)NCC(O)COc1cc2ccccc2cc1OCC(O)CNC(C)C.Cl (stereo not drawn),158 nM,5.45,2.2,-0.81,9.18,5.3,Active,Active
CC(C)NCC(O)COc1cccc2ccccc12 (stereo not drawn),–,–,–,–,–,–,Active,Active
Cc1ccc(OCC(O)CNC(C)C)c(OCC(O)CNC(C)C)c1.Cl (stereo not drawn),–,–,1.69,-1.16,9.24,4.3,Active,Active
CC(C)NCC(O)COc1cc2c(cc1OCC(O)CNC(C)C)CCCC2 (stereo not drawn),129 nM,5.83,2.02,-0.726,9.17,5,Active,Active
